# Laboratory results taken from the pKa sets of Baltruschat and Czodrowski (2020).
# Conditions: acidic group
row,SMILES,pKa
1,Oc1ccccc1CN1CCCC1,10.8
2,C=C=CC(=O)O,3.96
3,C=CCC1(CC=C)SC(=O)NC1=O,6.1
4,O=C(O)c1cccc2ccc(O)cc12,3.69
5,CC[N+](O)(CC)c1ccccc1,4.53
6,COC(=O)CC(C)=O,10.6
7,N#CC(CCCC(=O)O)c1ccccc1 (stereo not drawn),4.64
8,Nc1ccc(O)c([N+](=O)[O-])c1,7.81
9,COC(=O)CC(=O)c1ccncc1,8.24
10,Cc1ccc([Se]O)c([N+](=O)[O-])c1,10.7
11,CC[NH+]1CCC[C@@H]1CNC(=O)c1c(O)c(Cl)cc(Cl)c1OC,5.75
12,NS(=O)(=O)c1ccc(P(=O)([O-])O)cc1,6.38
13,CCCCCCCc1c(-c2ccccc2)n[nH]c1O,9.2
14,O=C(O)c1cnc(Cl)s1,3
15,Nc1nc([O-])c2nc[nH]c2n1,12.6
16,N#Cc1c[nH+]c2ccccc2c1O,-2.08
17,CN(C)c1nnn[nH]1,5.92
18,CCC(C)(O)c1cnc(CC(C)C)c(O)[n+]1[O-] (stereo not drawn),5.02
19,Oc1ccc(Cl)c(Cl)c1,8.58
20,Cc1cc2cccc(O)c2nc1C,10.2
21,CC(C)(C)C(=O)CC(=O)C(C)(C)C,11.8

row,SMILES,pKa
1,CCNC(=S)OC(C)C,11.5
2,CC1(C)S[C@H]2[C@@H](NC(=O)Cc3ccc(O)cc3)C(=O)N2[C@@H]1C(=O)O,2.62
3,Oc1ccc2[nH]ncc2c1,10.1
4,COc1ccc(CC(C(C)=O)C(C)=O)cc1,10.6
5,Clc1ccccc1-c1nnn[nH]1,3.69
6,CC(=O)CC(=O)C(F)(F)F,6.09
7,NC(=S)Nc1ccc([N+](=O)[O-])cc1,10.8
8,CNCCc1ccc(O)c(O)c1,10.6
9,CC#C/C=C/C(=O)O,4.2
10,[NH3+][C@H]1CCCC[C@@H]1C(=O)O,3.59
11,CCCCCCCC[NH2+]CCC(=O)O,3.56
12,Cc1cccc(C(=O)N(C)O)c1,8.52
13,O=C(O)C1CCc2ccccc2O1 (stereo not drawn),3.38
14,COc1cc2ccccc2cc1C(=O)O,3.82
15,CN1c2ccccc2Nc2ccc(O)cc21,10.1
16,CC(=O)N(C)c1nnc(S(N)(=O)=O)s1,7.4
17,Oc1c(Cl)cc(Cl)cc1C[NH+]1CCCCC1,5.97
18,O=C(O)c1cc[nH]n1,3.84
19,O=S(=O)([O-])c1c(O)ccc2[nH]ncc12,10.6
20,COc1cccnc1C(O)O,12.9
21,c1ccc(CSc2ncn[nH]2)cc1,9.5

row,SMILES,pKa
1,CC[N+](O)(CC)CC,5.13
2,Cc1cccc([N+](=O)[O-])c1C(=O)O,2.13
3,NC(=O)C1CCCCN1 (stereo not drawn),8.9
4,CC(C)SCC(=O)O,3.72
5,[NH3+][C@@H](CCC(=O)O)C(=O)[O-],4.46
6,S=C(Nc1ccc(Cl)c(Cl)c1)c1ccc(Cl)cc1,9.51
7,NC(=O)C(CCC(=O)O)c1ccccc1 (stereo not drawn),4.64
8,S=c1[nH]cnc2nn[nH]c12,4.6
9,O=[N+]([O-])c1ccc(NC=S)cc1,10.1
10,CCOO,11.8
11,C[C@@H](C(=O)c1ccc(O)cc1)[NH+](C)Cc1ccccc1,7.5
12,CN(C)c1cc[nH+]c2c(O)cccc12,7.05
13,CCOC(=O)c1ccccc1-n1nc(O)cc1-c1ccccc1,12.4
14,[NH3+]C(c1cccc(O)c1O)P(=O)([O-])[O-] (stereo not drawn),9.44
15,[NH3+][C@@H](CCCCN1C(=O)C[C@H]([NH3+])C1=O)C(=O)O,2.5
16,Oc1cc[nH+]nc1,1.07
17,CCCCc1c(O)nc(NCC)[nH+]c1C,5.04
18,Nc1cc([O-])ccc1O,11.2
19,[NH3+]CCCCCCC#CC#CCCC(=O)O,4.21
20,Cc1cccc(C(=O)[O-])c1O,14.4
21,Cc1cc(C(CC(=O)O)c2ccccc2)ccc1O (stereo not drawn),4.67

row,SMILES,pKa
1,O=C(O)c1cnc(Br)s1,2.96
2,CCc1nc2cc3ccccc3cc2[nH]1,12.9
3,Cn1nc(Cl)nc1NN=O,4.03
4,O=C(O)c1ccc(I)cc1,3.99
5,N#CC(C#N)=C(C#N)Nc1ccc(Br)cc1,4.45
6,O=[N+]([O-])c1ccc2c(c1)C([P+](c1ccccc1)(c1ccccc1)c1ccccc1)c1ccccc1-2.[Br-] (stereo not drawn),5.36
7,CC[NH+]1CCC[C@@H]1CNC(=O)c1c(OC)ccc(Cl)c1O,7.07
8,C/C(=N\O)c1ccccc1,11.3
9,C[n+]1cccc(C(=O)Cc2ccccc2)c1,10.3
10,Sc1cccc2ncccc12,6.48
11,NNC(=O)c1ccccn1,11.8
12,CCC1(CC)SC(=O)NC1=O,6.42
13,Cn1c(CCl)nc2c(O)ccc(O)c21,8.4
14,Oc1c(Br)cc(Br)c2cccnc12,7.3
15,O=C([O-])CNC(=O)c1ccccc1O,8.16
16,Oc1ccc2nccnc2c1,7.92
17,[NH3+]CCCC#CC#CCCC(=O)O,4.12
18,O=C(CC(=O)C(F)(F)F)c1ccccc1,6.3
19,O=C/C(O)=C\[O-],13

# Same assay, conditions: basic group
row,SMILES,pKa
1,Oc1ccccc1CN1CCCC1,8.81
2,C[C@@H]1N[C@H](CCCCCCCC(=O)[O-])CC[C@@H]1O,10.4
3,Nc1cc[nH+]c([O-])n1,4.61
4,CSc1ccc2ccccc2n1,3.71
5,CC(=O)c1ccc(N)cc1,2.27
6,CC#C[C@H](C)Oc1cc(N)c(Cl)cc1C(=O)N[C@@H]1C[C@H]2CC[C@@H](C1)N2C,9.95
7,O=[N+]([O-])c1ccc([O-])c(CN2CCCCC2)c1,10.5
8,CCOC(=O)c1cnc2c([N+](=O)[O-])cccc2c1[O-],8.9
9,Cc1ccc(S(=O)C(C)(C)C)cc1 (stereo not drawn),-2.2
10,Cc1cc(C)[n+](C)c([S-])n1,3.15
11,N/C(CC[NH2+]c1ccccc1)=N\O,2.45
12,CCNN(C)CC,6.81
13,Cc1cc(C(c2ccc(N)cc2)c2ccc(N)cc2)ccc1[NH3+],3.8
14,CC1=C(CC(C)NCC(O)c2ccc([N+](=O)[O-])cc2)CCC1(C)C (stereo not drawn),8.36
15,Nc1nc([O-])c2nc[nH]c2n1,9.3
16,C=C(C)C(=O)OCCN(C(C)C)C(C)C,8.77
17,CN1C=C(C#N)CCC1,2.7
18,N[C@H]1CONC1=O,7.53
19,Cc1cc2cccc(O)c2nc1C,5.86
20,CC(O)CN(CCCN1CCOCC1)CC(C)O (stereo not drawn),8.4
21,Nc1ccc2cc3ccccc3nc2c1,8.04
22,C[Si](C)(CCN)O[Si](C)(C)CCN,10.7
23,CC1CCNCC1,10.9

row,SMILES,pKa
1,O=[N+]([O-])c1cnc([O-])[nH+]c1[O-],5.42
2,NC[C@H](O)C(=O)[O-],9.27
3,CC(C[NH3+])/C(N)=N/O (stereo not drawn),3.65
4,C=C[C@]1(O)CN2CC[C@H]1C[C@H]2[C@H](O)c1cc([O-])[nH+]c2ccccc12,7.65
5,NCCCCC[NH3+],9.73
6,CC(C)(C)c1cccc(C(C)(C)C)n1,4.95
7,CN(C)c1ccc(C#N)cc1,1.78
8,O=C(NCCCN1CCOCC1)c1ccc(Cl)cc1,6.81
9,CNCCc1ccc(O)c(O)c1,8.84
10,CC1=Nc2ccc(C)cc2N=C(C)C1,4
11,Cc1cccc(C2NCCS2)c1 (stereo not drawn),5.26
12,C[n+]1ccc([O-])nc1[O-],9.73
13,COC(=O)Cc1ccccc1N,3.71
14,Cc1ccc(Cl)cc1/C(=N/CCC[NH+](C)C)c1ccccc1,3.87
15,COc1ccc2c(c1)cc(C)n2C,0.25
16,Nc1ccnc2c1ncn2CCOCP(=O)([O-])O,5.52
17,C[C@]1([NH3+])C[C@@H]1N,5.83
18,CN1c2ccccc2Nc2ccc(O)cc21,1
19,c1c[nH+]ccn1,-5.55
20,Nc1ccc(C[NH3+])cc1,4.16
21,COc1nc(N)c2cnn(C)c2n1,3.66
22,COC(=O)[C@@H]1CSCN1,3.92
23,CC(N)CCCc1ccc(O)cc1 (stereo not drawn),9.4

row,SMILES,pKa
1,Nc1ccc2cccnc2c1,6.65
2,C[n+]1ccccc1-c1ccccn1,0.31
3,c1ccc(CC2CCCN2)cc1 (stereo not drawn),10.3
4,Cn1c(=O)c2c(ncn2CC(=O)[O-])n(C)c1=O,4.48
5,CCC(C)N (stereo not drawn),10.6
6,C[C@H]1CCC2CC[C@H](C)N21,11.7
7,C[Si](C)(C)CNC1CCCCC1,11
8,CSc1nc2cncnc2n1C,2.98
9,C[C@@H]1[C@@H](N)[C@H]1[NH3+],4.35
10,CCCCCCN(CCO)CC(O)CC (stereo not drawn),9.1
11,CN(C)/C=N/c1cccc(Cl)c1,7.97
12,Nc1ccc(Cl)cc1,3.96
13,CN1CCN(C(c2ccccc2)c2ccccc2)CC1,8.05
14,C/N=c1/oc2c(n1C)CCCC2,10.2
15,N[C@H]1CCCCC[C@@H]1O,9.35
16,CCN(CC)CC(=O)Nc1ccccc1,8
17,Cc1ccc(-c2ncc(-c3ccccc3)o2)cc1,1.04
18,C[C@H](N)[C@@H](C)N,9.88
19,CC(C)(C)Nc1ccccc1,7.15
20,CCc1nc2cc3ccccc3cc2[nH]1,6.14
21,CCCCCCCCCCCCCCN,10.6
22,Nc1cc([N+](=O)[O-])c2ccccc2c1,2.62
23,CCC(=O)C(CC(C)N1CCOCC1)(c1ccccc1)c1ccccc1 (stereo not drawn),6.89

row,SMILES,pKa
1,c1ccc2c(c1)cnc1ccccc12,4.58
2,Cc1cc(C)c2nccc(NCCC[NH+](C)C)c2c1[N+](=O)[O-],6.37
3,CCN1CCC[C@@H]1CNC(=O)c1c(OC)ccc(Cl)c1[O-],9.54
4,Cc1ccc(-c2ncc(-c3ccc(Br)cc3)o2)cc1,0.87
5,C1CNC[NH2+]C1,4.71
6,[S-]c1nccc2ccccc12,10.8
7,COc1cc(S(N)(=O)=O)cc(C(=O)N[C@@H]2C[C@H]3CC[C@@H](C2)N3Cc2ccccc2)c1OC,8.87
8,Cc1cc(-c2ncc[nH]2)nn1C,6.2
9,COc1ccc2c3c1O[C@H]1[C@@H](O)C=C[C@H]4[C@@H]([C@H]2O)N(C)CC[C@@]341,7.12
10,Oc1ccc2c(c1)Nc1ccccc1N2,1.8
11,CC(CN(C)C)[NH+](C)C (stereo not drawn),5.4
12,CCN(CC)CCCNC(=O)/C=N/[O-],10.3
13,NNC(=O)c1ccccn1,2.86
14,Cn1c(CCl)nc2c(O)ccc(O)c21,4.03
15,Oc1c(Br)cc(Br)c2cccnc12,2.6
16,CCCc1ccccc1N,4.36
17,Oc1ccc2nccnc2c1,1.4
18,C#C[C@]1(O)C[C@@H](C)N[C@@H]2CCCC[C@H]21,9.73
19,C[NH+]1CCN(C(c2ccccc2)c2ccccc2)CC1,2.16
20,Nc1ccc(Br)cc1,3.79
21,CCCc1ccnc2c1ccc1cccnc12,5.45
22,C/C(=N\c1ccccc1)Nc1ccccc1,8.3
